Measurements: PMC5218480 (PLoS ONE, 2017)

Test system: MV-4-11 cells
Test: Gene expression microarray analysis (Affymetrix PrimeView) and GSEA
Assay type: cell-based, human
Parameters: RFU PODN (11730768_x_at) / Fold change /veh PODN (11730768_x_at) / RFU LINC00158 (11744669_a_at) / Fold change /veh LINC00158 (11744669_a_at) / RFU DUSP10 (11751237_a_at) / Fold change /veh DUSP10 (11751237_a_at) / RFU ID3 (11757404_x_at) / Fold change /veh ID3 (11757404_x_at) / RFU PLEKHG5 (11737974_s_at) / Fold change /veh PLEKHG5 (11737974_s_at) / RFU LRRC4B (11730491_at) / Fold change /veh LRRC4B (11730491_at) / RFU GIMAP4 (11747438_a_at) / Fold change /veh GIMAP4 (11747438_a_at) / RFU KRT8 (11758183_x_at) / Fold change /veh KRT8 (11758183_x_at) / RFU CNN1 (11734310_a_at) / Fold change /veh CNN1 (11734310_a_at) / RFU VPS37D (11726825_at) / Fold change /veh VPS37D (11726825_at) / RFU C10orf10 (11716522_x_at) / Fold change /veh C10orf10 (11716522_x_at) / RFU KIR2DL2 /// KIR2DL4 /// KIR2DL5A /// KIR2DL5B /// KIR2DS1 /// KIR2DS2 /// KIR2DS3 /// KIR2DS4 /// KIR3DL3 /// KIR3DL3 /// KIR3DS1 (11738374_at) / Fold change /veh KIR2DL2 /// KIR2DL4 /// KIR2DL5A /// KIR2DL5B /// KIR2DS1 /// KIR2DS2 /// KIR2DS3 /// KIR2DS4 /// KIR3DL3 /// KIR3DL3 /// KIR3DS1 (11738374_at) / RFU C1QL1 (11718748_at) / Fold change /veh C1QL1 (11718748_at) / RFU TMPRSS4 (11747572_a_at) / Fold change /veh TMPRSS4 (11747572_a_at) / RFU HAMP (11756126_x_at) / Fold change /veh HAMP (11756126_x_at) / RFU RNFT2 (11725882_a_at) / Fold change /veh RNFT2 (11725882_a_at) / RFU NR4A2 (11747474_a_at) / Fold change /veh NR4A2 (11747474_a_at) / RFU ABCC12 (11746883_a_at) / Fold change /veh ABCC12 (11746883_a_at) / RFU TMEM136 (11760407_x_at) / Fold change /veh TMEM136 (11760407_x_at) / RFU CLDN22 /// WWC2 (11732394_at) / Fold change /veh CLDN22 /// WWC2 (11732394_at) / RFU HLA-DPB1 (11760878_x_at) / Fold change /veh HLA-DPB1 (11760878_x_at) / RFU SPINT1 (11716480_a_at) / Fold change /veh SPINT1 (11716480_a_at) / RFU GAP43 (11754022_s_at) / Fold change /veh GAP43 (11754022_s_at) / RFU A4GNT (11735810_at) / Fold change /veh A4GNT (11735810_at) / RFU PRB3 (11715151_x_at) / Fold change /veh PRB3 (11715151_x_at) / RFU TUBB4B (11761932_at) / Fold change /veh TUBB4B (11761932_at) / RFU CAPN14 (11732068_a_at) / Fold change /veh CAPN14 (11732068_a_at) / RFU TMCC2 (11721928_a_at) / Fold change /veh TMCC2 (11721928_a_at) / RFU IRGQ (11745062_a_at) / Fold change /veh IRGQ (11745062_a_at) / RFU FAM174B (11720279_a_at) / Fold change /veh FAM174B (11720279_a_at) / RFU TMPRSS4 (11748680_a_at) / Fold change /veh TMPRSS4 (11748680_a_at) / RFU FAM212B (11763350_a_at) / Fold change /veh FAM212B (11763350_a_at) / RFU PLEKHG5 (11743358_a_at) / Fold change /veh PLEKHG5 (11743358_a_at) / RFU ZSCAN30 (11745921_a_at) / Fold change /veh ZSCAN30 (11745921_a_at) / RFU CMKLR1 (11741424_a_at) / Fold change /veh CMKLR1 (11741424_a_at) / RFU LOC101060620 /// MAPK8IP1 (11723275_at) / Fold change /veh LOC101060620 /// MAPK8IP1 (11723275_at) / RFU SPTSSB (11747773_x_at) / Fold change /veh SPTSSB (11747773_x_at) / RFU PRSS12 (11739890_at) / Fold change /veh PRSS12 (11739890_at) / RFU BIN1 (11741810_x_at) / Fold change /veh BIN1 (11741810_x_at) / RFU WNT11 (11732464_a_at) / Fold change /veh WNT11 (11732464_a_at) / RFU C10orf10 (11716521_a_at) / Fold change /veh C10orf10 (11716521_a_at) / RFU C5orf56 (11738089_at) / Fold change /veh C5orf56 (11738089_at) / RFU CYB561 (11721691_x_at) / Fold change /veh CYB561 (11721691_x_at) / RFU ANKRD19P (11752326_a_at) / Fold change /veh ANKRD19P (11752326_a_at) / RFU OR2T12 /// OR2T33 /// OR2T8 (11738714_s_at) / Fold change /veh OR2T12 /// OR2T33 /// OR2T8 (11738714_s_at) / RFU VCAN (11748164_a_at) / Fold change /veh VCAN (11748164_a_at) / RFU JSRP1 (11732532_at) / Fold change /veh JSRP1 (11732532_at) / RFU KRTAP10-11 (11738290_x_at) / Fold change /veh KRTAP10-11 (11738290_x_at) / RFU MYO3A (11730013_a_at) / Fold change /veh MYO3A (11730013_a_at) / RFU EBF3 (11725865_a_at) / Fold change /veh EBF3 (11725865_a_at) / RFU CAMK2N1 (11719241_x_at) / Fold change /veh CAMK2N1 (11719241_x_at) / RFU C5orf56 (11738088_a_at) / Fold change /veh C5orf56 (11738088_a_at) / RFU OLFML3 (11715873_a_at) / Fold change /veh OLFML3 (11715873_a_at) / RFU LOC100653217 /// NTM (11731650_a_at) / Fold change /veh LOC100653217 /// NTM (11731650_a_at) / RFU MAPK11 (11762145_a_at) / Fold change /veh MAPK11 (11762145_a_at) / RFU FIZ1 (11724087_x_at) / Fold change /veh FIZ1 (11724087_x_at) / RFU OASL (11726364_x_at) / Fold change /veh OASL (11726364_x_at) / RFU SOX15 (11748057_x_at) / Fold change /veh SOX15 (11748057_x_at) / RFU CD79A (11719716_a_at) / Fold change /veh CD79A (11719716_a_at) / RFU HIST1H1D (11736915_at) / Fold change /veh HIST1H1D (11736915_at) / RFU CASKIN2 (11723855_a_at) / Fold change /veh CASKIN2 (11723855_a_at) / RFU LOC730098 (11760151_x_at) / Fold change /veh LOC730098 (11760151_x_at) / RFU OR4N2 (11742367_at) / Fold change /veh OR4N2 (11742367_at) / RFU PRRT2 (11749266_a_at) / Fold change /veh PRRT2 (11749266_a_at) / RFU SNX32 (11753110_a_at) / Fold change /veh SNX32 (11753110_a_at) / RFU CDHR5 (11726645_a_at) / Fold change /veh CDHR5 (11726645_a_at) / RFU RCAN1 (11760418_a_at) / Fold change /veh RCAN1 (11760418_a_at) / RFU FAM167A (11723789_a_at) / Fold change /veh FAM167A (11723789_a_at) / RFU FAM26E (11764081_at) / Fold change /veh FAM26E (11764081_at) / RFU ISYNA1 (11749810_s_at) / Fold change /veh ISYNA1 (11749810_s_at) / RFU ACY1 (11761880_at) / Fold change /veh ACY1 (11761880_at) / RFU 11764098_at / Fold change /veh 11764098_at / RFU SAMD14 (11745864_x_at) / Fold change /veh SAMD14 (11745864_x_at) / RFU NPB (11741838_a_at) / Fold change /veh NPB (11741838_a_at) / RFU TMPRSS6 (11731388_a_at) / Fold change /veh TMPRSS6 (11731388_a_at) / RFU KRTAP10-2 (11738614_at) / Fold change /veh KRTAP10-2 (11738614_at) / RFU ARHGAP8 /// PRR5-ARHGAP8 (11727945_x_at) / Fold change /veh ARHGAP8 /// PRR5-ARHGAP8 (11727945_x_at) / RFU KRTAP5-7 /// NADSYN1 (11734609_at) / Fold change /veh KRTAP5-7 /// NADSYN1 (11734609_at) / RFU RASL12 (11751679_a_at) / Fold change /veh RASL12 (11751679_a_at) / RFU CDKN2B (11736163_a_at) / Fold change /veh CDKN2B (11736163_a_at) / RFU PRF1 (11729649_at) / Fold change /veh PRF1 (11729649_at) / RFU, ZNF638 /// ZNF638-IT1 / Fold change vs veh, ZNF638 /// ZNF638-IT1 / RFU, PANK3 / Fold change vs veh, PANK3 / RFU, SH3YL1 / Fold change vs veh, SH3YL1 / RFU, ZEB2 / Fold change vs veh, ZEB2 / RFU, NRIP1 / Fold change vs veh, NRIP1 / RFU, PTTG1IP / Fold change vs veh, PTTG1IP / RFU, CAPN2 / Fold change vs veh, CAPN2 / RFU, MED14 / Fold change vs veh, MED14 / RFU, SNORA58 / Fold change vs veh, SNORA58 / RFU, C1orf63 / Fold change vs veh, C1orf63 / RFU, LRRFIP1 / Fold change vs veh, LRRFIP1 / RFU, NDUFAF7 / Fold change vs veh, NDUFAF7 / RFU, SLC12A2 / Fold change vs veh, SLC12A2 / RFU, IBTK / Fold change vs veh, IBTK / RFU, ESF1 / Fold change vs veh, ESF1 / Fold change vs veh, TMEM50B / RFU, TAOK1 / Fold change vs veh, TAOK1 / RFU, ACBD3 / Fold change vs veh, ACBD3 / RFU, TMA16 / Fold change vs veh, TMA16 / RFU, RWDD3 / Fold change vs veh, RWDD3 / RFU, BCAT1 / Fold change vs veh, BCAT1 / RFU, EDEM3 / Fold change vs veh, EDEM3 / RFU, TMEM33 / Fold change vs veh, TMEM33 / RFU, WDR75 / Fold change vs veh, WDR75 / RFU, AHCTF1 / Fold change vs veh, AHCTF1 / RFU, TFRC / Fold change vs veh, TFRC / RFU, ZDHHC17 / Fold change vs veh, ZDHHC17 / RFU, NOM1 / Fold change vs veh, NOM1 / RFU, ARL8B / Fold change vs veh, ARL8B / RFU, ZBTB11 / Fold change vs veh, ZBTB11 / RFU, TAMM41 / Fold change vs veh, TAMM41 / RFU, KIAA1704 /// LOC100996395 / Fold change vs veh, KIAA1704 /// LOC100996395 / RFU, ING1 / Fold change vs veh, ING1 / RFU, TRMT61B / Fold change vs veh, TRMT61B / RFU, FUBP3 / Fold change vs veh, FUBP3 / RFU, TP53 / Fold change vs veh, TP53 / RFU, TNKS2 / Fold change vs veh, TNKS2 / RFU, ZFP14 / Fold change vs veh, ZFP14 / RFU, ACTR2 / Fold change vs veh, ACTR2 / RFU, PPP3R1 / Fold change vs veh, PPP3R1 / RFU, PIK3R1 / Fold change vs veh, PIK3R1 / RFU, HNRNPA1 / Fold change vs veh, HNRNPA1 / RFU, RNF170 / Fold change vs veh, RNF170 / RFU, ZNF28 / Fold change vs veh, ZNF28 / RFU, RNGTT / Fold change vs veh, RNGTT / RFU, OGT / Fold change vs veh, OGT / RFU, BRD1 / Fold change vs veh, BRD1 / RFU, MARS / Fold change vs veh, MARS / RFU, ZNF655 / Fold change vs veh, ZNF655 / RFU, FAHD1 / Fold change vs veh, FAHD1 / RFU, BDP1 / Fold change vs veh, BDP1 / RFU, LRRCC1 / Fold change vs veh, LRRCC1 / RFU, ARID1A / Fold change vs veh, ARID1A / RFU, ZNF146 / Fold change vs veh, ZNF146 / RFU, ZNF330 / Fold change vs veh, ZNF330 / RFU, GPN3 / Fold change vs veh, GPN3 / RFU, C9orf123 / Fold change vs veh, C9orf123 / RFU, N4BP2L2 / Fold change vs veh, N4BP2L2 / RFU, ARFIP1 / Fold change vs veh, ARFIP1 / RFU, FAM179B / Fold change vs veh, FAM179B / RFU, BCL10 / Fold change vs veh, BCL10 / RFU, UHRF1BP1L / Fold change vs veh, UHRF1BP1L / RFU, BET1 / Fold change vs veh, BET1 / RFU, CNOT2 / Fold change vs veh, CNOT2 / RFU, ZNF268 / Fold change vs veh, ZNF268 / Fold change vs veh, ZNF507 / RFU, DGCR2 / Fold change vs veh, DGCR2 / RFU, WDSUB1 / Fold change vs veh, WDSUB1 / Fold change vs veh, HSP90B1 /// MIR3652 / RFU, ADSS / Fold change vs veh, ADSS / RFU, GK / Fold change vs veh, GK / RFU, ZNF148 / Fold change vs veh, ZNF148 / RFU, TAF9 / Fold change vs veh, TAF9 / RFU, SLC1A5 / Fold change vs veh, SLC1A5 / RFU, SLMO2 / Fold change vs veh, SLMO2 / RFU, ABCC4 / Fold change vs veh, ABCC4 / RFU, LOC101060439 /// RAP1B / Fold change vs veh, LOC101060439 /// RAP1B / RFU, RFX7 / Fold change vs veh, RFX7 / RFU, GTPBP10 / Fold change vs veh, GTPBP10 / RFU, CNEP1R1 / Fold change vs veh, CNEP1R1 / RFU, BIVM-ERCC5 /// ERCC5 / Fold change vs veh, BIVM-ERCC5 /// ERCC5 / RFU, ILF3 / Fold change vs veh, ILF3 / RFU 11762660_at / Fold change /veh 11762660_at / RFU VCAN (11757783_s_at) / Fold change /veh VCAN (11757783_s_at) / RFU DDX43 (11728927_at) / Fold change /veh DDX43 (11728927_at) / RFU KRT8 (11758188_x_at) / Fold change /veh KRT8 (11758188_x_at) / RFU NKD1 (11759106_at) / Fold change /veh NKD1 (11759106_at) / RFU SRD5A1 (11742802_a_at) / Fold change /veh SRD5A1 (11742802_a_at) / RFU TPSAB1 /// TPSB2 (11721975_s_at) / Fold change /veh TPSAB1 /// TPSB2 (11721975_s_at) / RFU GSTM3 (11746129_a_at) / Fold change /veh GSTM3 (11746129_a_at) / RFU IL23R (11737362_x_at) / Fold change /veh IL23R (11737362_x_at) / RFU TMEM51 (11727254_a_at) / Fold change /veh TMEM51 (11727254_a_at) / RFU PIWIL2 (11732686_x_at) / Fold change /veh PIWIL2 (11732686_x_at) / RFU ORM1 (11744905_x_at) / Fold change /veh ORM1 (11744905_x_at) / RFU CCDC152 (11743942_at) / Fold change /veh CCDC152 (11743942_at) / RFU ECM1 (11717891_a_at) / Fold change /veh ECM1 (11717891_a_at) / RFU IL23R (11748794_a_at) / Fold change /veh IL23R (11748794_a_at) / RFU TNFAIP8L3 (11732012_x_at) / Fold change /veh TNFAIP8L3 (11732012_x_at) / RFU MBOAT4 (11741988_at) / Fold change /veh MBOAT4 (11741988_at) / RFU 11764193_at / Fold change /veh 11764193_at / RFU TMEM53 (11763286_at) / Fold change /veh TMEM53 (11763286_at) / RFU MAGEB2 (11727129_at) / Fold change /veh MAGEB2 (11727129_at) / RFU TMEM200A (11744735_a_at) / Fold change /veh TMEM200A (11744735_a_at) / RFU CCDC152 (11751479_a_at) / Fold change /veh CCDC152 (11751479_a_at) / RFU FAM211A (11726209_a_at) / Fold change /veh FAM211A (11726209_a_at) / RFU RGS16 (11746705_a_at) / Fold change /veh RGS16 (11746705_a_at) / RFU VCAN (11755009_s_at) / Fold change /veh VCAN (11755009_s_at) / RFU RHOB (11743442_s_at) / Fold change /veh RHOB (11743442_s_at) / RFU RGS16 (11720943_a_at) / Fold change /veh RGS16 (11720943_a_at) / RFU RGS16 (11720944_at) / Fold change /veh RGS16 (11720944_at) / RFU, VPS4B / Fold change vs veh, VPS4B / RFU, CREB1 / Fold change vs veh, CREB1 / RFU, DNAJC13 / Fold change vs veh, DNAJC13 / RFU, GNAQ / Fold change vs veh, GNAQ / RFU, CDK5R1 / Fold change vs veh, CDK5R1 / RFU, ZRANB3 / Fold change vs veh, ZRANB3 / RFU, CUL4A / Fold change vs veh, CUL4A / RFU, CCNY / Fold change vs veh, CCNY / RFU, UFL1 / Fold change vs veh, UFL1 / RFU, COG3 / Fold change vs veh, COG3 / RFU, DIAPH2 / Fold change vs veh, DIAPH2 / RFU, SKA2 / Fold change vs veh, SKA2 / RFU, AFF3 / Fold change vs veh, AFF3 / RFU, LMF1 / Fold change vs veh, LMF1 / RFU, IPO11 / Fold change vs veh, IPO11 / RFU, DFFB / Fold change vs veh, DFFB / RFU, FOXP1 / Fold change vs veh, FOXP1 / RFU, CARD8 / Fold change vs veh, CARD8 / RFU, STRN3 / Fold change vs veh, STRN3 / RFU, ADK / Fold change vs veh, ADK / RFU, RASSF2 / Fold change vs veh, RASSF2 / RFU, WIPF1 / Fold change vs veh, WIPF1 / RFU, LARP1B / Fold change vs veh, LARP1B / RFU, RASA1 / Fold change vs veh, RASA1 / RFU, RB1 / Fold change vs veh, RB1 / RFU, PPFIA1 / Fold change vs veh, PPFIA1 / RFU, MAT2A / Fold change vs veh, MAT2A / RFU, CCT5 / Fold change vs veh, CCT5 / RFU, WDR92 / Fold change vs veh, WDR92 / RFU, CUX1 / Fold change vs veh, CUX1 / RFU, TTC7A / Fold change vs veh, TTC7A / RFU, TMEM135 / Fold change vs veh, TMEM135 / RFU, DEPTOR / Fold change vs veh, DEPTOR / RFU, CPM / Fold change vs veh, CPM / RFU, DNAJB6 / Fold change vs veh, DNAJB6 / RFU, CACNA2D3 / Fold change vs veh, CACNA2D3 / RFU, DTX4 / Fold change vs veh, DTX4 / RFU, TFCP2 / Fold change vs veh, TFCP2 / RFU, GMCL1 /// GMCL1P1 / Fold change vs veh, GMCL1 /// GMCL1P1 / RFU, AEBP2 / Fold change vs veh, AEBP2 / RFU, SNHG1 /// SNORD22 /// SNORD25 /// SNORD26 /// SNORD27 /// SNORD28 /// SNORD29 /// SNORD31 / Fold change vs veh, SNHG1 /// SNORD22 /// SNORD25 /// SNORD26 /// SNORD27 /// SNORD28 /// SNORD29 /// SNORD31 / Fold change (Aza/veh), C12orf56 (ProbeSet 11735607_a_at) / Fold change (ACY-1035/veh), C12orf56 (ProbeSet 11735607_a_at) / Fold change (Aza/veh), FGFR1OP (ProbeSet 11751329_s_at) / Fold change (ACY-1035/veh), FGFR1OP (ProbeSet 11751329_s_at) / Fold change (Aza/veh), VPS36 (ProbeSet 11739960_a_at) / Fold change (ACY-1035/veh), VPS36 (ProbeSet 11739960_a_at) / RFU SYPL1 (11715823_x_at) / Fold change /veh SYPL1 (11715823_x_at) / RFU IGFBP7 (11715501_s_at) / Fold change /veh IGFBP7 (11715501_s_at) / RFU REEP3 (11722064_at) / Fold change /veh REEP3 (11722064_at) / RFU IGLL1 (11728026_x_at) / Fold change /veh IGLL1 (11728026_x_at): dose or concentration left out as unconfirmed
Settings: MV-4-11 cells, 48 hours

Nc1ccc(-c2cccs2)cc1NC(=O)c1ccc2c(c1)cc(C1CC1)n2CCN1CCOCC1 [ACY-1035]
Fold change /veh REEP3 (11722064_at): 0.53
